Data from patent publication US10246453B2, “Benzenesulfonamide compounds and their use as therapeutic agents” (Xenon Pharmaceuticals Inc., priority 2016, dated 2019).
Where a name gives a salt, the structure may show the parent alone.

Legend:
NaV1.1 [1] = molecular target: T1, NaV1.1 (Homo sapiens (Human), UniProt P35498); assay: Electrophysiological Assay (EP), patch voltage clamp, NaV1.1; format: cell-based; conditions: HEK-293 cells, whole-cell patch clamp, inactivated state; arithmetic mean
Method: Sodium currents were measured using the patch clamp technique in the whole-cell configuration using either a PatchXpress automated voltage clamp or manually using an Axopatch 200B (Axon Instruments) or Model 2400 (A-M systems) amplifier.
In some studies, the external sodium was reduced by equimolar replacement with choline. […] All recordings were performed at ambient temperature in a bath chamber with a volume of 150 μL. Control sodium currents were measured in 0.5% DMSO. Controls and representative compounds of the invention were applied to the recording chamber through a 4-pinch or 8-pinch valve bath perfusion system manufactured by ALA Scientific Instruments.
Series resistance compensation was applied (60-80%). […] All statistics in this study are given as mean±SD.
The membrane potential was maintained at a voltage where inactivation of the channel is complete. The voltage is then stepped back to a very negative (Vhold=−150 mV) voltage for 20 ms and then a test pulse is applied to quantify the compound block. […] The percent decrease in sodium current following wash-on of compound was taken as the percent block of sodium channels.

NaV1.5 = NaV1.5 (Homo sapiens (Human), UniProt Q14524); assay: Sodium Influx Assay (Flux), NaV1.5; conditions: read-out: Flux NaV1.5 IC50; Trex HEK293 cells, ANG2 dye; arithmetic mean
Sequence of NaV1.5 (Q14524 other isoform, or with tags, fused parts or gaps): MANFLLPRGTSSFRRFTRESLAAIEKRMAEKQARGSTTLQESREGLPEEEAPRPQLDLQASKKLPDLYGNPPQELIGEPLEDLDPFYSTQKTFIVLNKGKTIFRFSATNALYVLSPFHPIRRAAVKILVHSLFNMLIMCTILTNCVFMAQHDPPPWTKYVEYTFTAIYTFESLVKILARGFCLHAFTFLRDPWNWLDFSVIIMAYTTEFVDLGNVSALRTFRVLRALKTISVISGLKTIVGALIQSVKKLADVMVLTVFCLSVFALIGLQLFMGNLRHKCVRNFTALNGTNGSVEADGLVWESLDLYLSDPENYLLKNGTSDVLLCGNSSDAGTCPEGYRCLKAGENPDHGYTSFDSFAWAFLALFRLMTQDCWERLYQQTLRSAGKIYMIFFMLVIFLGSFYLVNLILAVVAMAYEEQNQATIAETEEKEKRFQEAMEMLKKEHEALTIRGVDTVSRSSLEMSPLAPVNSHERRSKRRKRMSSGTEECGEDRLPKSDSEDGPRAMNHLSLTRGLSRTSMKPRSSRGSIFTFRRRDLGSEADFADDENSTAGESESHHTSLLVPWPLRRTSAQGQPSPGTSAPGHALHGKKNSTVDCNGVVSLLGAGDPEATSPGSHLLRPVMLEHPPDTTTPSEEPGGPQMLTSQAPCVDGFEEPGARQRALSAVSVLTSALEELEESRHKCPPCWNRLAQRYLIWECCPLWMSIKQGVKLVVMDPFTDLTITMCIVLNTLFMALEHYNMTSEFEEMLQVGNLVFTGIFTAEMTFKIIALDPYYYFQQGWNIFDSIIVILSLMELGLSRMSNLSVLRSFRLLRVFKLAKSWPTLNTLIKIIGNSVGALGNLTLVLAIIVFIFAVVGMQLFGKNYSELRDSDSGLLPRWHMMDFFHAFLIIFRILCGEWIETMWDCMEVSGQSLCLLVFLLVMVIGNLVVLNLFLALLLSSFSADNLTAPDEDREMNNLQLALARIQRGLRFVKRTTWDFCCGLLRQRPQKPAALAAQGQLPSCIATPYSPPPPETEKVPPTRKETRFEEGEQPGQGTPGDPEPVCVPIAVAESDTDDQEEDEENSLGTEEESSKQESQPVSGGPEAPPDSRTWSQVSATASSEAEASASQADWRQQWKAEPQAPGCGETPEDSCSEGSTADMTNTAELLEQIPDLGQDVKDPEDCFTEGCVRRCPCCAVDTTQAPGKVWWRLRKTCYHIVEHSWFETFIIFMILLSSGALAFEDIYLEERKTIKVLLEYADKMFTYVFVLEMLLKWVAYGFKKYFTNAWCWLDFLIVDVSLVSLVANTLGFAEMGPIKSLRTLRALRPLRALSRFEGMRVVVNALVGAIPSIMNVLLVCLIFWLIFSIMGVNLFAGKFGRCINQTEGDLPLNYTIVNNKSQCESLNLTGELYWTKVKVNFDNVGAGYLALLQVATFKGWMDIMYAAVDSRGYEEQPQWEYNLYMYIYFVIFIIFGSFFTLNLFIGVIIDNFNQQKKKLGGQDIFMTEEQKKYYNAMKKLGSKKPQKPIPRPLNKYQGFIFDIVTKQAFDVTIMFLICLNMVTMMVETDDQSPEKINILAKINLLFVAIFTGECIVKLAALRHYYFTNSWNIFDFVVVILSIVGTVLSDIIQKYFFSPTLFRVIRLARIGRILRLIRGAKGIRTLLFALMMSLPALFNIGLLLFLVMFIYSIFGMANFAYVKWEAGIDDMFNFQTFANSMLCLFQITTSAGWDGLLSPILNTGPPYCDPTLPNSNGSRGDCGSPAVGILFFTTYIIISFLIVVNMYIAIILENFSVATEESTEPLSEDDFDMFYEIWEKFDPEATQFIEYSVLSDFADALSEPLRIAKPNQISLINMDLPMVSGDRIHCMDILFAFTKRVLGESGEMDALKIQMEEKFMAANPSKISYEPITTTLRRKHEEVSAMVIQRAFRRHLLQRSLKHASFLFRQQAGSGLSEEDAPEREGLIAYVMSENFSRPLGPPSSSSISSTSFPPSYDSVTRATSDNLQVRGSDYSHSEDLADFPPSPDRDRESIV

NaV1.6 [2] = molecular target: T2, NaV1.6 (Homo sapiens (Human), UniProt Q9UQD0); assay: Electrophysiological Assay (EP), patch voltage clamp, NaV1.6; format: cell-based; conditions: HEK-293 cells, whole-cell patch clamp, inactivated state; arithmetic mean
T2 sequence (Q9UQD0 whole entry): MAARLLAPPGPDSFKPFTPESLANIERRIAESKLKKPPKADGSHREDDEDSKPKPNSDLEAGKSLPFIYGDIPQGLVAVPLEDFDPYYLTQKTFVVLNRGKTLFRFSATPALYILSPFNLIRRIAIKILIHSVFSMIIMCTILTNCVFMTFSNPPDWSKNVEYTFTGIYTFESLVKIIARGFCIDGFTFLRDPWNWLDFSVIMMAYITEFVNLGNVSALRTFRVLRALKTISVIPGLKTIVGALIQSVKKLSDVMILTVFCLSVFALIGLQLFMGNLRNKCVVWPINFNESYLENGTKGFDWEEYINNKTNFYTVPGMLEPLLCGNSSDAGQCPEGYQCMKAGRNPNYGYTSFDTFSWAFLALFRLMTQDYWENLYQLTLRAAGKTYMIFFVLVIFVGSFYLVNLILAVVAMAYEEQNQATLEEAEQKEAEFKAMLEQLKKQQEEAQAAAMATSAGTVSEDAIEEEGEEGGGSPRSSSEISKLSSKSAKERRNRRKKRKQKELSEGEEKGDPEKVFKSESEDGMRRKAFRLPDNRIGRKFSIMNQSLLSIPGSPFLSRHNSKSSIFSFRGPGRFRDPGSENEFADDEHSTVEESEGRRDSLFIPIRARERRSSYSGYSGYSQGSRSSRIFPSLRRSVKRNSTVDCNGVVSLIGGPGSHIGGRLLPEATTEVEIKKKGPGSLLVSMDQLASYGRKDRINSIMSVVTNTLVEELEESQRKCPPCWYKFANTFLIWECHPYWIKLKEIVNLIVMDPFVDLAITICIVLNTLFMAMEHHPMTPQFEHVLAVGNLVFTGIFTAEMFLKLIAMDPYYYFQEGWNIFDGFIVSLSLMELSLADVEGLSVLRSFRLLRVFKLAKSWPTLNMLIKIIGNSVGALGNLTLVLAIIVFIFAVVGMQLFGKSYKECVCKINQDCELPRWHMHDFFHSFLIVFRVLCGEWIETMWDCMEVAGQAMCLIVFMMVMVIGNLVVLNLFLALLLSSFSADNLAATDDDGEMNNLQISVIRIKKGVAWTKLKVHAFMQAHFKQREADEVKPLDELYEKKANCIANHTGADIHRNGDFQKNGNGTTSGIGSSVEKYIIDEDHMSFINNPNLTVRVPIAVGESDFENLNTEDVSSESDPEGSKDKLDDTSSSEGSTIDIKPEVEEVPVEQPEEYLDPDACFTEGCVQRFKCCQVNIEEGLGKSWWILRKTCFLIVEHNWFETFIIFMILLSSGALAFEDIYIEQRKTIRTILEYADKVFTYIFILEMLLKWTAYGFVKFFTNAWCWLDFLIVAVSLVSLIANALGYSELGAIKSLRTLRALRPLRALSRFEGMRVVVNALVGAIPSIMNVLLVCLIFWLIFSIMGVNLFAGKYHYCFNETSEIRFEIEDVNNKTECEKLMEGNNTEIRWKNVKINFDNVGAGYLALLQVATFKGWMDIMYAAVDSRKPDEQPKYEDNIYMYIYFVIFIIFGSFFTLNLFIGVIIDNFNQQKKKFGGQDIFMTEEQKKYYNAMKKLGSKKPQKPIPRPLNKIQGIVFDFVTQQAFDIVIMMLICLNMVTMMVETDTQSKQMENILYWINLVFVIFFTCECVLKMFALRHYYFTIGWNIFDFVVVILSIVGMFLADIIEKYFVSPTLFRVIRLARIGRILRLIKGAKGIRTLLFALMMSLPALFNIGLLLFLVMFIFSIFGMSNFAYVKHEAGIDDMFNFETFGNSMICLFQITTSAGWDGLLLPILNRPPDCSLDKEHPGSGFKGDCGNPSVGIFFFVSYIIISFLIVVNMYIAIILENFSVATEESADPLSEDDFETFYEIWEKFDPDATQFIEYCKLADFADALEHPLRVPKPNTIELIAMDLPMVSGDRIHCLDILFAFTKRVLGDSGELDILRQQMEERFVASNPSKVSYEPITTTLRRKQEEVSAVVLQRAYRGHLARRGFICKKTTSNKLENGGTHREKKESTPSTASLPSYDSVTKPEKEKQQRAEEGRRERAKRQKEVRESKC

NaV1.6 [3] = molecular target: T2, NaV1.6; assay: Sodium Influx Assay (Flux), NaV1.6; conditions: read-out: Flux NaV1.6 IC50; Trex HEK293 cells, ANG2 dye; arithmetic mean
NaV1.1 [4] = molecular target: T1, NaV1.1; assay: Sodium Influx Assay (Flux), NaV1.1; format: cell-based; conditions: Trex HEK293 cells, ANG2 dye; arithmetic mean

Row | Compound | IC50 (NaV1.1 [1]) [µM] | IC50 (NaV1.5) [µM] | IC50 (NaV1.6 [2]) [µM] | IC50 (NaV1.6 [3]) [µM] | IC50 (NaV1.1 [4]) [µM]
1 | CN(c1cc(F)c(S(=O)(=O)Nc2cscn2)c(F)c1Cl)[C@H]1CCN(Cc2ccccc2)C1 [Example 102, (S)-4-((1-benzylpyrrolidin-3-yl)(methyl)amino)-3-chloro-2,6-difluoro-N-(thiazol-4-yl)benzenesulfonamide formate] | > 10 | > 30 | 0.152 | 0.703 | > 30
2 | Cc1cccc(CN2CC[C@H](N(C)c3cc(F)c(S(=O)(=O)Nc4cscn4)c(F)c3C)C2)n1 [Example 104, (S)-2,6-difluoro-3-methyl-4-(methyl(1-((6-methylpyridin-2-yl)methyl)pyrrolidin-3-yl)amino)-N-(thiazol-4-yl)benzenesulfonamide formate] | > 10 | > 30 | 0.011 | 0.026 | > 30
3 | O=S(=O)(Nc1cscn1)c1c(F)cc(OC2CCN(Cc3ccccc3)CC2)c(Cl)c1F [Example 105, 4-((1-benzylpiperidin-4-yl)oxy)-3-chloro-2,6-difluoro-N-(thiazol-4-yl)benzenesulfonamide formate] | > 10 | 17.6 | 0.151 | 0.268 | 27.6
4 | Cc1c(OC2CCN(Cc3ccccc3)CC2)cc(F)c(S(=O)(=O)Nc2cscn2)c1F [Example 106, 4-((1-benzylpiperidin-4-yl)oxy)-2,6-difluoro-3-methyl-N-(thiazol-4-yl)benzenesulfonamide formate] | > 10 | 20.6 | 0.034 | 0.099 | 23.2
5 | Cc1cccc(CN2CC[C@H](N(C)c3cc(F)c(S(=O)(=O)Nc4cscn4)cc3Cl)C2)n1 [Example 192, (S)-5-chloro-2-fluoro-4-(methyl(1-((6-methylpyridin-2-yl)methyl)pyrrolidin-3-yl)amino)-N-(thiazol-4-yl)benzene-sulfonamide] | > 10 | > 30 | 0.37 | 0.857 | > 30
6 | CN(c1cc(F)c(S(=O)(=O)Nc2cscn2)cc1Cl)[C@H]1CCN(Cc2cccc(C(F)F)c2)C1 [Example 193, (S)-5-chloro-4-((1-(3-(difluoromethyl)benzyl)-pyrrolidin-3-yl)(methyl)amino)-2-fluoro-N-(thiazol-4-yl)benzene-sulfonamide] | > 10 | 9.02 | 0.33 | 0.774 | 3.57
7 | COc1ccccc1CN1CC[C@H](N(C)c2cc(F)c(S(=O)(=O)Nc3cscn3)cc2Cl)C1 [Example 206, (S)-5-chloro-2-fluoro-4-((1-(2-methoxybenzyl)pyrrolidin-3-yl)(methyl)amino)-N-(thiazol-4-yl)benzenesulfonamide] | > 10 | > 30 | 0.462 | 0.532 | 22.5
8 | C[C@@H](c1ccccc1)N1CCC(Oc2ccc(S(=O)(=O)Nc3ncns3)cc2Cl)CC1 [Example 221, (S)-3-chloro-4-((1-(1-phenylethyl)piperidin-4-yl)oxy)-N-(1,2,4-thiadiazol-5-yl)benzenesulfonamide 2,2,2-trifluoroacetate] | > 10 | > 30 | 0.098 | 0.127 | 10.8
9 | C[C@H](c1ccccc1)N1CCC(Oc2cc(F)c(S(=O)(=O)Nc3cscn3)cc2Cl)CC1 [Example 222, (R)-5-chloro-2-fluoro-4-((1-(1-phenylethyl)piperidin-4-yl)oxy)-N-(thiazol-4-yl)benzenesulfonamide 2,2,2-trifluoroacetate] | > 10 | 19.4 | 0.278 | 0.959 | 27.9
10 | C[C@@]1(Nc2ccc(S(=O)(=O)Nc3cscn3)cc2Cl)CCN(Cc2ccccc2)C1 [Example 225, (R)-4-((1-benzyl-3-methylpyrrolidin-3-yl)amino)-3-chloro-N-(thiazol-4-yl)benzenesulfonamide formate] | > 10 | 5.55 | 5.31 | 3.9 | 5.45
11 | C[C@]1(Nc2ccc(S(=O)(=O)Nc3cscn3)cc2Cl)CCN(Cc2ccccc2)C1 [Example 226, (S)-4-((1-benzyl-3-methylpyrrolidin-3-yl)amino)-3-chloro-N-(thiazol-4-yl)benzenesulfonamide formate] | > 10 | 9.04 | 3.08 | 2.43 | 11.5
12 | CC[C@@H](c1ccccc1)N1CC[C@H](N(C)c2cc(F)c(S(=O)(=O)Nc3cscn3)cc2Cl)C1 [Example 242, 5-chloro-2-fluoro-4-(methyl((S)-1-((S)-1-phenylpropyl)pyrrolidin-3-yl)amino)-N-(thiazol-4-yl)benzenesulfonamide] | > 10 | 9.96 | 0.668 | 0.65 | 5.38
13 | CN(c1cc(F)c(S(=O)(=O)Nc2cscn2)cc1Cl)[C@H]1CCN([C@@H]2CCc3ccccc32)C1 [Example 246, 5-chloro-4-(((S)-1-((R)-2,3-dihydro-1H-inden-1-yl)pyrrolidin-3-yl)(methyl)amino)-2-fluoro-N-(thiazol-4-yl)benzenesulfonamide 2,2,2-trifluoroacetate] | > 10 | 18.7 | 1.03 | 0.629 | 8.51
14 | CN(c1cc(F)c(S(=O)(=O)Nc2cscn2)cc1Cl)[C@H]1CCN([C@H]2CCc3ccccc32)C1 [Example 249, 5-chloro-4-(((S)-1-((S)-2,3-dihydro-1H-inden-1-yl)pyrrolidin-3-yl)(methyl)amino)-2-fluoro-N-(thiazol-4-yl)benzenesulfonamide 2,2,2-trifluoroacetate] | > 10 | 17.4 | 0.11 | 0.285 | 11.2
15 | C[C@H](c1ccccc1)N1CC[C@H](N(C)c2ccc(S(=O)(=O)Nc3cscn3)cc2Cl)C1 [Example 251, 3-chloro-4-(methyl((S)-1-((R)-1-phenylethyl)pyrrolidin-3-yl)amino)-N-(thiazol-4-yl)benzenesulfonamide 2,2,2-trifluoroacetate] | > 10 | 7.32 | 0.412 | 1.51 | 7.45
16 | CN(c1ccc(S(=O)(=O)Nc2cscn2)cc1Cl)[C@H]1CCN(Cc2cccc(C(F)F)c2)C1 [Example 253, (S)-3-chloro-4-((1-(3-(difluoromethyl)benzyl)pyrrolidin-3-yl)(methyl)amino)-N-(thiazol-4-yl)benzenesulfonamide formate] | 4.76 | 2.52 | 0.491 | 0.756 | 2.67
17 | CN(c1cc(F)c(S(=O)(=O)Nc2cscn2)cc1Cl)[C@H]1CCN(C(C)(C)c2ccccc2)C1 [Example 257, (S)-5-chloro-2-fluoro-4-(methyl(1-(2-phenylpropan-2-yl)pyrrolidin-3-yl)amino)-N-(thiazol-4-yl)benzenesulfonamide formate] | > 10 | 10.6 | 0.17 | 0.701 | 10.3
18 | CN(c1cc(F)c(S(=O)(=O)Nc2cscn2)cc1Cl)[C@H]1CCN(C2(c3ccccc3)CC2)C1 [Example 259, (S)-5-chloro-2-fluoro-4-(methyl(1-(1-phenylcyclopropyl)pyrrolidin-3-yl)amino)-N-(thiazol-4-yl)benzenesulfonamide 2,2,2-trifluoroacetate] | 3.52 | 5.81 | 0.44 | 1.58 | 3.77
19 | CN(c1cc(F)c(S(=O)(=O)Nc2cccc(F)n2)cc1Cl)[C@H]1CCN(C(C)(C)c2ccccc2)C1 [Example 260, (S)-5-chloro-2-fluoro-N-(6-fluoropyridin-2-yl)-4-(methyl(1-(2-phenylpropan-2-yl)pyrrolidin-3-yl)amino)benzenesulfonamide 2,2,2-trifluoroacetate] | 9.64 | 10.1 | 0.842 | 1.68 | 7.35
20 | CCN(c1cc(F)c(S(=O)(=O)Nc2cscn2)cc1Cl)[C@H]1CCN(Cc2ccccc2)C1 [Example 263, (S)-4-((1-benzylpyrrolidin-3-yl)(ethyl)amino)-5-chloro-2-fluoro-N-(thiazol-4-yl)benzenesulfonamide] | > 10 | 19.1 | 3.81 | 3.1 | 4.44
21 | Cc1c(O[C@H]2CCN(Cc3ccccc3)C2)cc(F)c(S(=O)(=O)Nc2cscn2)c1F [Example 269, (S)-4-((1-benzylpyrrolidin-3-yl)oxy)-2,6-difluoro-3-methyl-N-(thiazol-4-yl)benzenesulfonamide hydrochloride] | > 10 | > 30 | 0.329 | 0.647 | > 30
